# Tests used:
# [1] = system: patients with osteonecrosis or osteoarthritis of the knee; experiment: Random, double-blind comparison study of oral iloprost versus Tramadol; format: in vivo, human
# Description: To confirm the action of oral iloprost on the bone marrow edema and the pain, a random, double-blind comparison study was performed on the opiate Tramadol® in 41 patients with osteonecrosis or osteoarthritis of the knee in the period from March 2001 to November 2002 according to the GCP guidelines.
# Patients of both sexes with resting pain because of an osteonecrosis or osteoarthritis were included in the study if the following criteria were met: • Age between 19 and 60 years, • Bone marrow edema found by means of MRT according to specified criteria.
# The treatment was carried out either with iloprost capsules or with outwardly indistinguishable Tramadol capsules that were packaged and characterized according to valid GLP rules. Each capsule contained either 50 μg of iloprost or 50 mg of Tramadol®.
# During the first three days of treatment, the study medication was administered in a dosage of 3×1 capsules during the day, which starting on day 4 could be increased individually to increase the success of the therapy (alleviation of pain) up to a maximum dose of 3×2 capsules during the day. In the case of poor tolerance, the dosage could always be reduced to a minimum dose of 2×1 capsules during the day.
# The treatment period was one month, followed by a follow-up observation period of two months during which no treatment was given. Previously administered pain-relieving medications should be discontinued before the beginning of the study.
# The clinical action of the treatment was determined based on the following parameters: • Evaluation of the intensity of the resting pain and the activity-related pain by the patient based on a 100 mm scale, whereby 0 means “no pain,” and 100 means “intolerable pain.” • Evaluation of the functional condition of the knee by means of Larson scores. • Evaluation of the bone marrow edema by means of MRT.
# osteonecrosis = settings: five-day intravenous infusion; cited from earlier work
# [2] = system: patients with painful bone marrow edema; experiment: 28-day treatment of patients with painful bone marrow edema (summary statements); format: in vivo, human; settings: 28-day oral treatment; for pain and articulation: follow-up two months after end of treatment
# Text: Treatment with orally available prostacyclin derivatives, especially with cyclodextrin clathrates of the prostacyclin derivatives of formula I, thus represents a novel therapy that not only suppresses the symptoms, i.e., the pain, but combats the causes of osteonecrosis and osteoarthritis and for the first time can also be clinical, studied independently.
# The β-cyclodextrin clathrate of iloprost, (5- {(1S,5S,6R,7R)-7-hydroxy-6-[(E)-(3R,4RS)-3-hydroxy-4-methyl-oct-1-en-6-inyl]-bicyclo[3.3.0]octane-3-ylidene}pentanoic acid)-β-cyclodextrin clathrate, is especially suitable.
# [3] = after 28 days of treatment, persists 2 months without therapy
# [4] = listed as iloprost β-cyclodextrin clathrate
# [5] = listed as β-cyclodextrin clathrate of iloprost
smiles,measurement,setting,value
"COc1cccc(C2(O)CCCCC2CN(C)C)c1 (centres unmarked) [Tramadol®, reference compound]","activity-related pain, 100 mm visual analog scale",[1]; [3],considerable reduction in pain
same,"resting pain, 100 mm visual analog scale",[1]; [3],Almost complete freedom from pain
same,knee activity score according to Larson (maximum score 100),[1]; improvement persists 2 months without therapy,pronounced increase
same,patients with complete degeneration of the bone marrow edema in at least one affected bone,"[1]; one month treatment, MRT",19%
"CC#CCC(C)[C@H](O)/C=C/[C@@H]1[C@H]2C/C(=C/CCCC(=O)O)C[C@H]2C[C@H]1O.NC(CO)(CO)CO (some centres unmarked) [Ilomedin®, iloprost-trometamol]",pain in osteonecrosis,osteonecrosis,alleviation of pain in osteonecrosis can be achieved
"CC#CCC(C)[C@H](O)/C=C/[C@@H]1[C@H]2C/C(=C/CCCC(=O)O)C[C@H]2C[C@H]1O (stereo partly drawn) [oral iloprost, (5-{(1S,5S,6R,7R)-7-hydroxy-6-[(E)-(3R,4RS)-3-hydroxy-4-methyl-oct-1-en-6-inyl]-bicyclo[3.3.0]octane-3-ylidene}pentanoic acid)-β-cyclodextrin clathrate]",pain and articulation,[2]; [4],alleviation of pain and the improved articulation could be observed even two months after the end of treatment
same,pain and articulation,[2]; [5],significant improvement of the pain
same,bone marrow edema,[2]; [4],reduced not only the bone marrow edema
same,"structural integrity of the bone, necrotic areas and lesions",[2]; [4],restored the structural integrity
same,bone marrow edema,[2]; [5],significant reduction of the bone marrow edema
same,"structural integrity of the bone, necrotic areas and lesions",[2]; [5],healing of necroses

# Reference: patent US20050101673A1, “Use of orally available prostacyclin derivatives for the production of a pharmaceutical agent for treating diseases that are associated with bone marrow edemas” (Schering AG, priority 2002, published 2005)
